# How the values were obtained:
# METH-sensitized rats = test: Reversal of METH-induced behavioral sensitization by 5-HT2A/2C antagonists (motor activity after acute METH challenge); assay type: in vivo, rat
# Source text: Automation of observational evaluations was accomplished using computerized small animal monitors (AccuScan Instr. Inc., Columbus, Ohio). […] One feature of drug-induced behavioral sensitization is heterogeneity of motor responses and the AccuScan monitors quantify numerous behavioral indices. This is a critical point for the motor profile is exquisitely related to METH dose, the drug history of the rat and observation time. After 3- or 31-days of withdrawal from repeated METH injections, rats were allowed to achieve baseline motor activity with a 30 min habituation period, challenged with 1 mg/kg sc METH and monitored for 90 min.
# Multiple 5-HT2A/2C antagonists with differing pharmacological profiles were tested for their ability to ameliorate METH-induced behavioral sensitization when administered after sensitization has developed. […] The doses were selected based on the antagonists' ability to block 5-HT2A- and 5-HT2C-mediated activity and their pharmacokinetic profiles.
# METH-conditioned rats = test: METH-induced conditioned place preference (CPP) with simultaneous motor sensitization; assay type: in vivo, rat
# Source text: The CPP box (Accuscan, Columbus, Ohio) consists of three Plexiglas compartments, each with distinct visual and tactile cues (on one side, patterned floor with object attached and horizontally striped wall; on the opposite side, smooth floor with no object and vertically striped walls; center—uniformly white floor and walls). The center compartment can be separated from the left and right compartments by removable guillotine doors. Motor activity in three dimensional space, and time spent, in each compartment is detected by two sets of photobeams set at different heights from the floor. Drug conditioning is performed by administering METH to the rat while it is in one compartment, and on the alternating day, saline is administered while the rat is confined to the opposite compartment. Confinement was achieved by blocking access to other compartments using the guillotine door. The center compartment is not seen by the rat during conditioning, and all conditioning sessions last for 45 min.
# The inventors have determined that the number of METH-pairings, and the dose of METH, dictate the strength of the drug-environment association (i.e., the magnitude of salience attribution). The test for CPP is determined in a METH-free state (i.e., at least 48 hr after that last METH pairing), at which time the rats are placed in the center compartment and allowed free access to all compartments for 30 min, and the time spent in each compartment is the index of preference. The inventors have determined that the number of METH-pairings, and the dose of METH, dictate the strength of the drug-environment association (i.e., the magnitude of salience attribution) and thus the amount of time spent in the compartment previously paired with METH (FIG. 7), as well as persistence of this effect (i.e., how long it lasts; FIG. 8A). METH-induced motor sensitization can be assessed in several ways, including assessing the capacity of the rat to express an enhanced motor response to an acute METH challenge (FIGS. 9 & 10A).
# To efficiently apply this approach to testing of 5-HT2A/2C antagonists, we determined that single pairing protocols of the CPP paradigm can be used to predict efficacy outcomes of 5-HT2A/2C antagonists in long-term tests on these drugs evaluating their capacity to nullify the persistent enhanced salience induced by METH. […] Thus, these protocols should help predict the capacity of novel therapeutic targets to halt a common problem of drug relapse, i.e., the ability of re-exposure to drugs like METH to immediately reinstate their abuse.
# α2 = details: read-out: receptor affinity (Ki) α2; cited from earlier work
# 5-HT2C = target: T1, 5-HT2C (Homo sapiens, UniProt P28335); details: read-out: receptor affinity (Ki) 5-HT2C; cited from earlier work
# T1 sequence (P28335 33-458): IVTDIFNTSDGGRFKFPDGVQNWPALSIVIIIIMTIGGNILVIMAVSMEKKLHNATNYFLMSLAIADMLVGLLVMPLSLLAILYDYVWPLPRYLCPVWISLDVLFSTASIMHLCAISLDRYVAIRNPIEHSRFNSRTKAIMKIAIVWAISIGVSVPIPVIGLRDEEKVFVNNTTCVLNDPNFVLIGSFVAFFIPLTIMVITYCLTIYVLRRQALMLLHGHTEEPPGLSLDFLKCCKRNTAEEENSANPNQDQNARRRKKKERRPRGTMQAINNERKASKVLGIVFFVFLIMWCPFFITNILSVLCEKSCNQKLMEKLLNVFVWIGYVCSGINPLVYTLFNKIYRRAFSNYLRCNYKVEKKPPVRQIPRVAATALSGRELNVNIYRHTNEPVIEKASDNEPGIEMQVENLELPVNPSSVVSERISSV
# 5-HT3 = target: T2, 5-HT3 (Homo sapiens, UniProt P46098); details: read-out: receptor affinity (Ki) 5-HT3; cited from earlier work
# T2 sequence (P46098 24-478): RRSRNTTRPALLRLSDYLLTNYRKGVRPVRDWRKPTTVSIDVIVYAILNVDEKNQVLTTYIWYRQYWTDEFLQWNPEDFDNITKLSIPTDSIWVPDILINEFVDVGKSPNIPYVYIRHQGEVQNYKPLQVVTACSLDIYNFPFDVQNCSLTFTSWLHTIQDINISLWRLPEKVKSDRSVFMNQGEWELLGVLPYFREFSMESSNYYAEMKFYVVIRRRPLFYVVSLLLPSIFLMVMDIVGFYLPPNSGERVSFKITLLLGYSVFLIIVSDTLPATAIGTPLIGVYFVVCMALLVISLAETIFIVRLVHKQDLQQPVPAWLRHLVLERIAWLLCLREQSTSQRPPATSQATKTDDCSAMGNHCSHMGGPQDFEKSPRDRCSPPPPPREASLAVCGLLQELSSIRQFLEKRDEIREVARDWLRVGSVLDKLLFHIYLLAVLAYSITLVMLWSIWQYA
compound,measurement,setting,value
"CN1CCN2c3ncccc3Cc3ccccc3[C@@H]2C1 (racemic) [mirtazapine, 1,2,3,4,10,14b-hexahydro-2-methyl-pyrazino[2,1-a]pyrido[2,3-c]benzazepine]",vertical movement suppression seen in METH-pretreated rats,METH-sensitized rats; mirtazapine 5 mg/kg x 15 days,attenuation of the vertical movement suppression
same,decreases in total distance traveled and time spent ambulating induced by METH pretreatments,"METH-sensitized rats; mirtazapine 5 mg/kg x 15 days, data not shown",attenuated the decreases
same,horizontal activity,"METH-sensitized rats; mirtazapine 5 mg/kg x 15 days, first 60 min after acute METH challenge",slight attenuation
same,potentiation of METH-induced sensitization for any assessed behavior,METH-sensitized rats; mirtazapine daily 5 mg/kg x 15 days,did not potentiate
same,overall attenuation of METH-sensitized responses,"METH-sensitized rats; mirtazapine daily 5 mg/kg x 15 days, M-F",greatest overall attenuation
same,mirtazapine+saline group vs saline+saline pretreated rats,"METH-sensitized rats; mirtazapine daily 5 mg/kg x 15 days, saline-pretreated",did not differ
same,preference to the place previously paired with METH (CPP expression),"METH-conditioned rats; 3 pairings 1 mg/kg ip METH, ten once-daily 5 mg/kg ip mirtazapine during withdrawal, day 20 (FIG. 8B)",completely reverse
same,associated motor sensitization (number of rears),"METH-conditioned rats; mirtazapine during METH withdrawal, METH challenge day 22 (FIG. 10B)",completely reverse
same,ability of subsequent METH pairings to induce CPP (reinstatement),"METH-conditioned rats; repeated mirtazapine during withdrawal, day 25 (FIG. 12)",renders ineffective
same,CPP expression after single pairing of 1.0 mg/kg METH,"METH-conditioned rats; single home cage injection 0.5, 1.0 or 5.0 mg/kg mirtazapine 24 h before test (FIG. 11)",reversal of METH-induced CPP
same,Ki,α2,65 nM
same,Ki,5-HT2C,12 nM
same,Ki,5-HT3,8 nM
